Format in all cases: functional
In one assay the test system is Rhizopus. In words: Antifungal activity against Rhizopus after 72 to 96 hr by two-fold serial dilution method.
A further assay has as its system Aspergillus flavus. In words: Antifungal activity against Aspergillus flavus after 72 to 96 hr by two-foldserial dilution method.
A further assay concerns Klebsiella pneumoniae. Description: Antibacterial activity against Klebsiella pneumoniae after 24 hr by two fold serial dilution method.
The subject of the next assay is Escherichia coli. In words: Antibacterial activity against Escherichia coli after 24 hr by two-fold serial dilution method.
Another assay has as its system Staphylococcus aureus. In words: Antibacterial activity against Staphylococcus aureus after 24 hr by two fold serial dilution method.
Another assay relates to Pseudomonas aeruginosa. Description: Antibacterial activity against Pseudomonas aeruginosa after 24 hr by two-fold serial dilution method.
The test system of another assay is Aspergillus niger. Description: Antifungal activity against Aspergillus niger after 72 to 96 hr by two-foldserial dilution method.

Values after ≈ are worked out from the molar mass of the structure shown.

The term MIC denotes the lowest concentration that inhibits growth of the organism. High values mean a need for much substance, low ones inhibition by little substance. Take `CC1/C(=N\O)CC(c2ccco2)N(C=O)C1c1ccco1` (centres undefined): the MIC was determined as 50 µg/mL (≈ 173 µM) in the assay on Rhizopus; 50 µg/mL (≈ 173 µM) in the assay with Aspergillus flavus; 100 µg/mL (≈ 347 µM) in the assay on Klebsiella pneumoniae; 50 µg/mL (≈ 173 µM) with Escherichia coli; 100 µg/mL (≈ 347 µM) against Staphylococcus aureus; 100 µg/mL (≈ 347 µM) against Pseudomonas aeruginosa. The compound further had an MIC against Aspergillus niger of 25 µg/mL (≈ 86.7 µM).

In the case of `CCC1/C(=N\O)CC(c2ccco2)N(C=O)C1c1ccco1` (centres undefined), the MIC with Rhizopus worked out at 25 µg/mL (≈ 82.7 µM); against Aspergillus flavus, 50 µg/mL (≈ 165 µM); against Klebsiella pneumoniae, 50 µg/mL (≈ 165 µM); against Escherichia coli it was 50 µg/mL (≈ 165 µM); with Staphylococcus aureus it was 100 µg/mL (≈ 331 µM); with Pseudomonas aeruginosa it was 100 µg/mL (≈ 331 µM). Besides, the lowest concentration to inhibit growth in the assay with Aspergillus niger (MIC) was 25 µg/mL (≈ 82.7 µM).

For the compound `CC(C)C1/C(=N\O)CC(c2ccco2)N(C=O)C1c1ccco1` (centres undefined), the MIC amounted to 50 µg/mL (≈ 158 µM) in the assay with Rhizopus; 12.5 µg/mL (≈ 39.5 µM) against Aspergillus flavus; 25 µg/mL (≈ 79 µM) with Klebsiella pneumoniae; 25 µg/mL (≈ 79 µM) with Escherichia coli; 50 µg/mL (≈ 158 µM) in the assay with Staphylococcus aureus; 50 µg/mL (≈ 158 µM) in the assay on Pseudomonas aeruginosa. The compound further had an MIC with Aspergillus niger of 12.5 µg/mL (≈ 39.5 µM).

Regarding `O=CN1C(c2ccco2)C/C(=N/O)C(Cc2ccccc2)C1c1ccco1` (centres undefined), the MIC was determined as 50 µg/mL (≈ 137 µM) against Rhizopus; 25 µg/mL (≈ 68.6 µM) in the assay with Aspergillus flavus; 25 µg/mL (≈ 68.6 µM) in the assay with Klebsiella pneumoniae; 25 µg/mL (≈ 68.6 µM) against Escherichia coli; 25 µg/mL (≈ 68.6 µM) against Staphylococcus aureus; 25 µg/mL (≈ 68.6 µM) with Pseudomonas aeruginosa. Inhibition of growth in the assay on Aspergillus niger (MIC) required 25 µg/mL (≈ 68.6 µM).

On to `C[C@@H]1[C@H](O)[C@@H](C)/C=C/C=C/C=C/C=C/C=C/C=C/C=C/[C@H](O[C@@H]2O[C@H](C)[C@@H](O)[C@H](N)[C@@H]2O)C[C@@H]2O[C@](O)(C[C@@H](O)C[C@@H](O)[C@H](O)CC[C@@H](O)C[C@@H](O)CC(=O)O[C@H]1C)C[C@H](O)[C@H]2C(=O)O` [AMPHOTERICIN B], for which the figures for the MIC in the assay on Rhizopus, in the assay on Aspergillus flavus and against Aspergillus niger were 50 µg/mL (≈ 54.1 µM), 25 µg/mL (≈ 27.1 µM) and 50 µg/mL (≈ 54.1 µM), respectively.

`O=C(O)c1cn(C2CC2)c2cc(N3CCNCC3)c(F)cc2c1=O` [CIPROFLOXACIN]: the minimum inhibitory concentration (MIC) is 25 µg/mL (≈ 75.4 µM) with Escherichia coli, 50 µg/mL (≈ 151 µM) with Staphylococcus aureus and 50 µg/mL (≈ 151 µM) against Pseudomonas aeruginosa.

Source of the values: ChEMBL document CHEMBL3044883, “Synthesis, spectral, theoretical, and antimicrobial screening of some heterocyclic oximes” (2011).
